Active and inactive are the calls of the source. The calls are words filed in the database; no cut-off is given here. Bounds are passed on as bounds.

The target in series [1] is T1, Extracellular calcium-sensing receptor (Homo sapiens, UniProt P41180).
T1 sequence (P41180 whole entry): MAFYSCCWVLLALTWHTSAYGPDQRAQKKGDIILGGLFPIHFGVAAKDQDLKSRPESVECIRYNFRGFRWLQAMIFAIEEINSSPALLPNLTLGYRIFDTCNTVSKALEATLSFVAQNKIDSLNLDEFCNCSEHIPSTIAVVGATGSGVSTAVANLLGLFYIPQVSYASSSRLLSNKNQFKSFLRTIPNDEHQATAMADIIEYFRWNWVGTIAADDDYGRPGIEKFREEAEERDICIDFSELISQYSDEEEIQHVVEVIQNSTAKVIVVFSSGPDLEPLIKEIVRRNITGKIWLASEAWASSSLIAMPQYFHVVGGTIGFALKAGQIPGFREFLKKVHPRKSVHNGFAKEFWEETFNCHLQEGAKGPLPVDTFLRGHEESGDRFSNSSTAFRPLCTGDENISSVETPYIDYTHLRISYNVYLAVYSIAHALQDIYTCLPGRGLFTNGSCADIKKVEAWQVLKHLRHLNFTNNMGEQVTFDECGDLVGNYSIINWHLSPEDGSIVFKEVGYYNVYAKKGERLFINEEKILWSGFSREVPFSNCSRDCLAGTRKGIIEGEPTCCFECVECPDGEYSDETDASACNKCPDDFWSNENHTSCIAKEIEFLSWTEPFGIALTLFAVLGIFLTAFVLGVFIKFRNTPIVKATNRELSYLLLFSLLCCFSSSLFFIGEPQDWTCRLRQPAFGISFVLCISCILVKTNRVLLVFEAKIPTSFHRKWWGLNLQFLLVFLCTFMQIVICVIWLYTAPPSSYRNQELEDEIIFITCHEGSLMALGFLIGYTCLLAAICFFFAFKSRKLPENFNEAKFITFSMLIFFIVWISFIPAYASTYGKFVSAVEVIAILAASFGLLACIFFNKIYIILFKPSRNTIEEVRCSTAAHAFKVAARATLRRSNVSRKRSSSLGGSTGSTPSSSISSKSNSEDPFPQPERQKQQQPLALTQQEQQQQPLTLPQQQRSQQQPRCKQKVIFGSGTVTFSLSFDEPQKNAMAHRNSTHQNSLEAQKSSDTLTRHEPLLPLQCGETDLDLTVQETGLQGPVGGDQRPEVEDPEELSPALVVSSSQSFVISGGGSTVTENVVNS
Kind of series: Antagonist activity at calcium sensing receptor (unknown origin) by cell based FLIPR assay. Format: functional.

Series [2] is described as follows: Oral bioavailability in Sprague-Dawley rat at 5 mg/kg. To be noted: in vivo. It is filed as ADME, organism-based.
The nature of series [3]: Cmax in Sprague-Dawley rat at 2 mg/kg, iv or 5 mg/kg, po. It is filed as ADME, organism-based. To be noted: in vivo.
The nature of series [4]: Clearance in Sprague-Dawley rat plasma at 2 mg/kg, iv or 5 mg/kg, po. Format: ADME, organism-based.
The nature of series [5]: Half life in Sprague-Dawley rat at 2 mg/kg, iv or 5 mg/kg, po. To be noted: in vivo. Format: ADME, organism-based.
Series [6] can be described thus: Tmax in Sprague-Dawley rat at 2 mg/kg, iv or 5 mg/kg, po. It is filed as ADME, organism-based. The note with it: in vivo.
For series [7], the system named is Rattus norvegicus. Kind of series: Stimulation of parathyroid hormone release in overnight fasted Sprague-Dawley rat serum at 30 mg/kg, po measured within 1 hour by ELISA relative to vehicle treated control. It is filed as functional.
For series [8], the system named is Rattus norvegicus. The series can be described thus: Stimulation of parathyroid hormone release in po dosed overnight fasted Sprague-Dawley rat serum after 7 days by ELISA. It is filed as functional, organism-based. On the technique in general: ELISA stands for enzyme-linked immunosorbent assay.
For series [9], the system named is Rattus norvegicus. The series can be described thus: Stimulation of parathyroid hormone release in overnight fasted Sprague-Dawley rat serum at 30 mg/kg, po measured after 2 hrs by ELISA. Format: functional, organism-based.

In general, IC50 refers to the concentration that inhibits the measured activity by half. In the case of `Cc1ccc(C(C)OC[C@H](O)CNC(C)(C)CC2Cc3ccccc3C2)c2c1OC1C(C(=O)O)C21` (stereo partly specified), in series [1], the IC50 was found to be 117 nM.

Take `Cc1ccc(C(C)OC[C@H](O)CNC(C)(C)Cc2ccc(Cl)c(F)c2)c2c1OC1C(C(=O)O)C21` (stereo partly specified): in [1], the IC50 was determined as 203 nM.

In general, bioavailability refers to dose-corrected exposure relative to a reference, in per cent. One may read the Cmax as the highest concentration seen after dosing. Broadly, the half-life is the time in which the quantity being followed falls by half. A lower half-life goes with fast loss. In series [2], `COc1ccc(CC(C)(C)NC[C@@H](O)CO[C@H](C)c2ccc(C)c3c2[C@@H]2[C@H](O3)[C@H]2C(=O)O)c(Cl)c1` yielded a bioavailability of 16.5%. Further, the IC50 in series [1] was determined as 19.6 nM. In [3], the concentration peaked (Cmax) at 300 nM. In [4], this molecule came in with a clearance of 41 mL/min/kg. In series [5], this molecule had a half-life of 174 min.

In the case of `Cc1ccc(C(C)OC[C@H](O)CNC(C)(C)Cc2ccc3ccccc3c2)c2c1OC1C(C(=O)O)C21` (stereo partly specified), the IC50 in series [1] worked out at 64.3 nM.

As a reminder, the Tmax is the time from dosing to the highest level. `CSc1ccc(CC(C)(C)NC[C@@H](O)CO[C@H](C)c2ccc(C)c3c2[C@@H]2[C@H](O3)[C@H]2C(=O)O)cc1F` came in with a bioavailability in series [2] of 6.9%. Moreover, the Tmax in series [6] was less than 1 h. The IC50 in series [1] was 27.6 nM. This molecule displayed a Cmax in series [3] of 170 nM. Further, the “fold change (FC)” value in the series with Rattus norvegicus [7] is 3. Also, the Activity result in the series on Rattus norvegicus [8] was “Dose-dependent effect”. In series [4], the clearance amounted to 40.2 mL/min/kg. In [5], this molecule gave a half-life of 114 min. Also, the outcome with Rattus norvegicus [9] was inactive.

For `CSc1ccc(CC(C)(C)NC[C@@H](O)CO[C@H](C)c2ccc(C)c3c2[C@@H]2[C@H](O3)[C@H]2C(=O)O)cc1`, in series [1], the IC50 was 39.3 nM.

Turning to `Cc1ccc([C@@H](C)OC[C@H](O)CNC(C)(C)Cc2ccc3ncccc3c2)c2c1O[C@@H]1[C@@H](C(=O)O)[C@H]21`, in series [1], the IC50 came to 457 nM.

For the molecule `Cc1ccc([C@@H](C)OC[C@H](O)CNC(C)(C)Cc2ccc3sccc3c2)c2c1O[C@@H]1[C@@H](C(=O)O)[C@H]21`, the IC50 in series [1] was determined as 9.62 nM.

In the case of `Cc1ccc([C@@H](C)OC[C@H](O)CNC(C)(C)Cc2ccc3ccccc3c2)c2c1O[C@@H]1[C@@H](C(=O)O)[C@H]21`, the IC50 in series [1] worked out at 7.45 nM.

In the case of `Cc1ccc([C@@H](C)OC[C@H](O)CNC(C)(C)CCCc2ccccc2)c2c1O[C@@H]1[C@@H](C(=O)O)[C@H]21`, the IC50 in series [1] turned out to be 28.4 nM.

On to `Cc1ccc([C@@H](C)OC[C@H](O)CNC(C)(C)Cc2ccc3ccccc3c2)c2c1O[C@H]1[C@H](C(=O)O)[C@@H]21`, for which the IC50 in [1] turned out to be 21.6 nM.

`Cc1ccc([C@@H](C)OC[C@H](O)CNC(C)(C)CCSc2ccccc2)c2c1O[C@@H]1[C@@H](C(=O)O)[C@H]21`: the half-inhibitory concentration (IC50) in series [1] was determined as 50.8 nM.

For the molecule `Cc1ccc(CC(C)(C)NC[C@@H](O)CO[C@H](C)c2ccc(C)c3c2[C@@H]2[C@H](O3)[C@H]2C(=O)O)cc1C`, the IC50 in series [1] is 17.7 nM.

For `Cc1ccc([C@@H](C)OC[C@H](O)CNC(C)(C)Cc2ccc3c(c2)CCS3(=O)=O)c2c1O[C@@H]1[C@@H](C(=O)O)[C@H]21`, in series [1], the IC50 is more than 10000 nM.

The record behind these values is ChEMBL document CHEMBL3826945, “Discovery of novel dihydrobenzofuran cyclopropane carboxylic acid based calcium sensing receptor antagonists for the treatment of osteoporosis” (Bioorg Med Chem Lett, 2016).
